Source: patent US20220054532A1, “VETERINARY COMPOSITIONS AND METHODS OF USE THEREFOR” (priority 2019, published 2022)

Columns and labels:
Assay type in all cases: in vivo
[1] = test system: dogs suffering behavior aberrations and/or anxiety; assay: Example 5: behavior aberrations and anxiety, C-BARQ (canine); conditions: C-BARQ day 0 vs 60, SID, 0 (no improvement) to 3 (marked improvement)
Excerpt: (§1) This example examines the ability of embodiments of the invention versus Clomicalm® to reduce behavior aberrations and anxiety.
(§2) The first patient group is twenty dogs suffering behavior aberrations and/or anxiety, as determined by the canine behavioral assessment and research questionnaire (“C-BARQ”). See, e.g., P. Wiener et al., Use of questionnaire-based data to assess dog personality, 16 JOURNAL OF VETERINARY BEHAVIOR 81-85 (2016). The second patient group is twenty cats suffering behavior aberrations and/or anxiety, as determined by the feline behavioral assessment and research questionnaire (“Fe-BARQ”).
(§3) Each group is broken into five groups of four animals. The first group receives Clomicalm® as the sole active agent; the second group receives a composition comprising HMW HA as the sole active agent; the third group receives a composition comprising CBD as the sole active agent; the fourth group receives a composition comprising HMW HA and CBD as the active agents; and the fifth group receives a composition comprising HMW HA, CBD, valerian root, and scutillaria as the active agents.
(§4) Each composition is administered for a period of sixty (60) days, once a day (“SID”). Owners complete the species-appropriate C-BARQ or Fe-BARQ on days 0 and 60 of treatment. The results from the overall questionnaire are averaged and characterized as no improvement (score of 0), mild improvement (score of 1), moderate improvement (score of 2), or marked improvement (score of 3).
The following canine scores are observed and the results depicted in FIG. 5a: […]

[2] = test system: cats suffering behavior aberrations and/or anxiety; assay: Example 5: behavior aberrations and anxiety, Fe-BARQ (feline); conditions: Fe-BARQ day 0 vs 60, SID, 0 (no improvement) to 3 (marked improvement)
Excerpt: as §1, §2, §3, §4
The following feline scores are observed and the results depicted in FIG. 5b: […]

[3] = test system: dogs suffering from seizures; assay: Example 14: seizures in dogs (CBD Complex); conditions: seizure scale 1 (seizure-free) to 10 (daily or multiple seizures)
Excerpt: (§5) This example examines the ability of embodiments of the invention versus phenobarbital to treat seizures.
(§6) The patient group is twenty-four dogs suffering from seizures as diagnosed by their referring veterinarian. The patient group is broken into six groups of four animals. The first group receives phenobarbital as the sole active agent; the second group receives a composition comprising phenobarbital and Keppra®; the third group receives a composition comprising HMW HA as the sole active agent; the fourth group receives a composition comprising CBD as the sole active agent; the fifth group receives a composition comprising HMW HA and CBD Complex as the active agents; and the sixth group receives a composition comprising HMW HA, CBD Complex, valerian root, and scutillaria as the active agents.
(§7) Each composition is administered for a period of sixty (60) days, BID. Each dog is evaluated on days 0 (“Initial Score”), 15, 30, 45, and 60 (“Final Score”) of treatment. The results are averaged and characterized on a scale of 1 (seizure-free) to 10 (daily seizures or multiple seizures during the event).
The following canine scores are observed and the results depicted in FIG. 14: […]

[4] = test system: dogs suffering from seizures; assay: Example 6: seizures in dogs; conditions: seizure scale 1 (seizure-free) to 10 (daily or multiple seizures)
Excerpt: as §5
as §6, with “CBD” for “CBD Complex”, “CBD,” for “CBD Complex,”
as §7
The following canine scores are observed and the results depicted in FIG. 6: […]

## CN(C)CCCN1c2ccccc2CCc2ccc(Cl)cc21 [Clomicalm ®]
[1]
  Improvement Score: .5
[2]
  Improvement Score: .4

## CCC1(c2ccccc2)C(=O)NC(=O)NC1=O [Phenobarbital]
[3]; day 0
  Initial Score: 9
[3]; day 60, BID
  Final Score: 8
[4]; day 0
  Initial Score: 9
[4]; day 60, BID
  Final Score: 8
